The results in this text go back to PMC3950631, “L-Phenylalanine Transport in Saccharomyces cerevisiae: Participation of GAP1, BAP2, and AGP1” (Journal of Amino Acids, 2014).

Like-named read-outs stand apart in the source and are kept apart here.

Assay in all cases: inhibition of […] L-[…]-phenylalanine uptake into intact yeast cells
Common to all, as to assay type: cell-based

One test deals with T1, Bap2p (Saccharomyces cerevisiae, UniProt P38084).
T1 construct: gene BAP2; native chromosomal permease in intact yeast cells, full length, plasma membrane; assigned by gene disruption
T1 sequence (P38084 1-609): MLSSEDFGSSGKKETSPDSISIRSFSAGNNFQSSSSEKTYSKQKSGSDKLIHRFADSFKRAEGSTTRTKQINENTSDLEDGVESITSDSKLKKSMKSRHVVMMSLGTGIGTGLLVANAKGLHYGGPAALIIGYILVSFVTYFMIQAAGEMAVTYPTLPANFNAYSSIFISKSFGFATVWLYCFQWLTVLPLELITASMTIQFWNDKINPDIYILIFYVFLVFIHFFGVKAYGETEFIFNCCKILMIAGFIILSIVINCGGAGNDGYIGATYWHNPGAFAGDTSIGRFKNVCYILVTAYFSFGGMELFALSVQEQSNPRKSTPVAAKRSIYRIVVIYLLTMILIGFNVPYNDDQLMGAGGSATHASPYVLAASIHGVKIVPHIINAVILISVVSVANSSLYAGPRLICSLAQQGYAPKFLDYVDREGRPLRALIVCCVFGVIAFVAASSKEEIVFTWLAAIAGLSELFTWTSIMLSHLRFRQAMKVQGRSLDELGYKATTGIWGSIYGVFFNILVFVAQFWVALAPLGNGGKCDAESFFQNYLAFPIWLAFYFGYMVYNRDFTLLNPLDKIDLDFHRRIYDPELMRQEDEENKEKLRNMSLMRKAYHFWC
The conditions noted are these: read-out: Percentage inhibition / Y294Δagp1.

The target in another test is T2, Gap1p (Saccharomyces cerevisiae, UniProt P19145).
T2 construct: gene GAP1; native chromosomal permease in intact yeast cells, full length, plasma membrane; assigned by gene disruption and growth medium
T2 sequence (P19145 1-602): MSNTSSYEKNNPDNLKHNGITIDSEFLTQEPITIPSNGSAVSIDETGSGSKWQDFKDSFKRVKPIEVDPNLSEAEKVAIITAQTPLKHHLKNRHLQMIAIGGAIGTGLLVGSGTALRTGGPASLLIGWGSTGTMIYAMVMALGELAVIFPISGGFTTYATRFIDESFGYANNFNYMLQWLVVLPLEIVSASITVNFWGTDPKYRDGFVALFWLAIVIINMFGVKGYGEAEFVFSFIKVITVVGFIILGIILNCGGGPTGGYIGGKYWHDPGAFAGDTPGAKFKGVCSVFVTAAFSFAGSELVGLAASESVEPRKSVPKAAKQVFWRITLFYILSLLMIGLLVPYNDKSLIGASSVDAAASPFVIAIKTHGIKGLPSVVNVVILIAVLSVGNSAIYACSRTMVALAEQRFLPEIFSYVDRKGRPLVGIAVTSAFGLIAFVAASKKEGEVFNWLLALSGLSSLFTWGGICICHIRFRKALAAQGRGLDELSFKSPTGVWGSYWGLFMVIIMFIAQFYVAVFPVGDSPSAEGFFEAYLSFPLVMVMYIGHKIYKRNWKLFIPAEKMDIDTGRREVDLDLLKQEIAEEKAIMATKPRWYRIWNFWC

A further test addresses T3, Agp1p (Saccharomyces cerevisiae, UniProt P25376).
T3 construct: gene AGP1; native chromosomal permease in intact yeast cells, full length, plasma membrane; assigned by gene disruption
T3 sequence (P25376 1-633): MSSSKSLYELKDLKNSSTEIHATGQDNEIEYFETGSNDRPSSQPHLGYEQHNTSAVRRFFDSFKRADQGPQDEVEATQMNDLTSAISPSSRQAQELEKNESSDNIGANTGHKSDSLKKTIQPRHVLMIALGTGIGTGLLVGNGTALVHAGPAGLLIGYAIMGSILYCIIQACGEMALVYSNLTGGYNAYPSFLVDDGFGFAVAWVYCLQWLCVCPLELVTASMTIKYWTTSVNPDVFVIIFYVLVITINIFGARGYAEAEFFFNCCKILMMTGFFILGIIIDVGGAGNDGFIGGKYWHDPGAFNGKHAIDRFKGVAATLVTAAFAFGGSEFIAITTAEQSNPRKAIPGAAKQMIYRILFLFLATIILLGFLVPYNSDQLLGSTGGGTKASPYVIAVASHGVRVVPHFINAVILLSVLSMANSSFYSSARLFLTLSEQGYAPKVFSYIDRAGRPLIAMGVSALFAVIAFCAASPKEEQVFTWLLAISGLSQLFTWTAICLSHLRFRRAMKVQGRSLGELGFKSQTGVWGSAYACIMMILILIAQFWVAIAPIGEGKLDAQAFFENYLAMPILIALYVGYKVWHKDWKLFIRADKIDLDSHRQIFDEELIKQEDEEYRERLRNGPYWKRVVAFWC

[1] abbreviates: read-out: Percentage inhibition / Y294Δbap2.
The mark [2] stands for this setting: read-out: Percentage inhibition / Y294Δbap2Δgap1 / MP.

For `CC(CC(N)C(=O)O)C(F)(F)F` (racemic) [DL-trifluoroleucine], the results for the inhibition at 200 µM on Bap2p and at Gap1p (setting [1]) were 48% and 42%, respectively.

As to `NC(Cc1cccs1)C(=O)O` (racemic) [β-2-thienylalanine], the inhibition at 200 µM at Bap2p turned out to be 67%.

As for `NC(=O)C[C@H](N)C(=O)O` [Asparagine], the values for the inhibition at 200 µM on Agp1p (setting [2]) and on Gap1p (setting [1]) were 48% and 37%, respectively.

With `NC(=O)NCCC[C@H](N)C(=O)O` [Citrulline], the inhibition at 200 µM on Gap1p (setting [1]) stood at 40%.

For the molecule `CC[C@H](C)[C@H](N)C(=O)O` [Isoleucine], the inhibition at 200 µM on Gap1p (read-out: Percentage inhibition / Y294) was determined as 71%.

Regarding `CC(C)C[C@H](N)C(=O)O` [Leucine], the inhibition at 200 µM on Bap2p was 72%; at Agp1p (setting [2]), 34%; at Gap1p (setting [1]), 75%.

For `N[C@@H](Cc1c[nH]c2ccccc12)C(=O)O` [Tryptophan], the values for the inhibition at 200 µM on Agp1p (read-out: Percentage inhibition / Y294Δgap1 / MA) and on Gap1p (setting [1]) were 18% and 86%, respectively.

Turning to `N[C@@H](Cc1ccc(O)cc1)C(=O)O` [Tyrosine], at Gap1p (setting [1]), the inhibition at 200 µM came to 81%.

For `CC(C)[C@H](N)C(=O)O` [Valine], the inhibition at 200 µM on Gap1p (setting [1]) amounted to 71%.
